Experimental data as given in ChEMBL document CHEMBL1201862, “PubChem BioAssay data set” (2004).
Calls of active or inactive are those of the source.

What was measured:
[1] = target: 1-phosphatidylinositol 4,5-bisphosphate phosphodiesterase gamma-1 (Homo sapiens, UniProt P19174); assay: Counterscreen for inhibitors of phospholipase C isozymes (PLC-B3): Fluorescence-based biochemical high throughput dose response assay to identify inhibitors of phospholipase C isozymes (PLC-gamma1).
[2] = target: 1-phosphatidylinositol 4,5-bisphosphate phosphodiesterase beta-3 (Homo sapiens, UniProt Q01970); assay: Fluorescence-based biochemical high throughput dose response assay to identify inhibitors of phospholipase C isozymes (PLC-B3).
Chain of 1-phosphatidylinositol 4,5-bisphosphate phosphodiesterase beta-3 (Q01970 whole entry): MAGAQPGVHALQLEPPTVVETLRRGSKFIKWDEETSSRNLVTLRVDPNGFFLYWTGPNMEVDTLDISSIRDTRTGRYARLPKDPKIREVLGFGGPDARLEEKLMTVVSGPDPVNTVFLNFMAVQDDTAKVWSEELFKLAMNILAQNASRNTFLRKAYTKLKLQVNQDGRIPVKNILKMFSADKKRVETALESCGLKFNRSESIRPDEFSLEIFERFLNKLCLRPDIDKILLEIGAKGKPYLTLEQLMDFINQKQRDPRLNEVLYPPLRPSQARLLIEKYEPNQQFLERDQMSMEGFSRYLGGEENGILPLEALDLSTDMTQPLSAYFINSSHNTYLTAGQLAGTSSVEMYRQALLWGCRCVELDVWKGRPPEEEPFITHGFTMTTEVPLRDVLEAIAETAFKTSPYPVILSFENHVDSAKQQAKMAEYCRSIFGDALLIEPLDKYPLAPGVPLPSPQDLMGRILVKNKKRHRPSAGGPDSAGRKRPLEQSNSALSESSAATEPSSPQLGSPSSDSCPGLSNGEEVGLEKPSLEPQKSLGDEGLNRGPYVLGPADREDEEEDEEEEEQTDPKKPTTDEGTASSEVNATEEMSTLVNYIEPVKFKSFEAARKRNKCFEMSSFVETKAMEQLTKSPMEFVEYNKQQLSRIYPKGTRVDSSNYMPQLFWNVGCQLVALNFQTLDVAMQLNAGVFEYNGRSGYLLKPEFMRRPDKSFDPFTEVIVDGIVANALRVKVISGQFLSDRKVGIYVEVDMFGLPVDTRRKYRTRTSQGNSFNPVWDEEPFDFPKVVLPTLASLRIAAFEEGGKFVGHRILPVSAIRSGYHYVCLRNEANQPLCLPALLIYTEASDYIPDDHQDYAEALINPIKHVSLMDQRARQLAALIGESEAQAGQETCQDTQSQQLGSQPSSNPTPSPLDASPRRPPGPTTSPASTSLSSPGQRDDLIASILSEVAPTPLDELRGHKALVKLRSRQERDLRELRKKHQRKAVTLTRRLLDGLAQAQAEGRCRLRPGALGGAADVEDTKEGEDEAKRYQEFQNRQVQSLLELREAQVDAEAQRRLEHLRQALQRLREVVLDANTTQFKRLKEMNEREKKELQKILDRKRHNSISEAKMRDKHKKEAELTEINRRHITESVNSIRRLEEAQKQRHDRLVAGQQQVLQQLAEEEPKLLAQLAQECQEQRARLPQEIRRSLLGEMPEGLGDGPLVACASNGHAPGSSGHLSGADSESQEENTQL

Vero = assay: cells; type: functional; settings: Chlorocebus sabaeus
[3] = target: T1, Replicative DNA helicase DnaB (Mycobacterium tuberculosis, UniProt P9WMR3); assay: DnaB intein splicing inhibitors, dose response, biochemical, cell-free fluorescence (AID 449749); type: functional
T1 sequence (P9WMR3 whole entry): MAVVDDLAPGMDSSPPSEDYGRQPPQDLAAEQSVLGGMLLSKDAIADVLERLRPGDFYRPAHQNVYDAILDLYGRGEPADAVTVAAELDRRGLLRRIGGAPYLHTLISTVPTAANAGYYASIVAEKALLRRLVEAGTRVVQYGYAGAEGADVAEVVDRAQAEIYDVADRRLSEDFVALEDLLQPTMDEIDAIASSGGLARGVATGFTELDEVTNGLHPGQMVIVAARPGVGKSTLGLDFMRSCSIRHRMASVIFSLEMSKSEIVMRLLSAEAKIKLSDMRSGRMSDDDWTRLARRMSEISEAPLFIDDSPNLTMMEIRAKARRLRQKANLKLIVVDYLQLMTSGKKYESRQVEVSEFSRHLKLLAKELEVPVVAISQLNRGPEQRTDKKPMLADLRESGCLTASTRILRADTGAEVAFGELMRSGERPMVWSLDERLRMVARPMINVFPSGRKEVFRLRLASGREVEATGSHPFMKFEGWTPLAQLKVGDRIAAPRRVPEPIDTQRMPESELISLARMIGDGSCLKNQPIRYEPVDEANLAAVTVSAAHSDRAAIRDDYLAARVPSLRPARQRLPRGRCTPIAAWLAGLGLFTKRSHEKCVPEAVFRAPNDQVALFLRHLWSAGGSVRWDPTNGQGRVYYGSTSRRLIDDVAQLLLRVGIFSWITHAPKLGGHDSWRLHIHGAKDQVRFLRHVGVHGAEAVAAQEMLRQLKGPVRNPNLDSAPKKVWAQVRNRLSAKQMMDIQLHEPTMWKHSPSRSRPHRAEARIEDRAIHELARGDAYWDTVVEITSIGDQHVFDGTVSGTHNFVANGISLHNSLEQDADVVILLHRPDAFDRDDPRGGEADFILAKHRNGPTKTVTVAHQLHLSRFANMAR

[4] = target: T2, Methionyl-tRNA synthetase, putative (Trypanosoma brucei brucei, UniProt Q38C91); type: functional, Trypanosoma brucei brucei strain 927/4 GUTat10.1
T2 sequence (Q38C91 whole entry): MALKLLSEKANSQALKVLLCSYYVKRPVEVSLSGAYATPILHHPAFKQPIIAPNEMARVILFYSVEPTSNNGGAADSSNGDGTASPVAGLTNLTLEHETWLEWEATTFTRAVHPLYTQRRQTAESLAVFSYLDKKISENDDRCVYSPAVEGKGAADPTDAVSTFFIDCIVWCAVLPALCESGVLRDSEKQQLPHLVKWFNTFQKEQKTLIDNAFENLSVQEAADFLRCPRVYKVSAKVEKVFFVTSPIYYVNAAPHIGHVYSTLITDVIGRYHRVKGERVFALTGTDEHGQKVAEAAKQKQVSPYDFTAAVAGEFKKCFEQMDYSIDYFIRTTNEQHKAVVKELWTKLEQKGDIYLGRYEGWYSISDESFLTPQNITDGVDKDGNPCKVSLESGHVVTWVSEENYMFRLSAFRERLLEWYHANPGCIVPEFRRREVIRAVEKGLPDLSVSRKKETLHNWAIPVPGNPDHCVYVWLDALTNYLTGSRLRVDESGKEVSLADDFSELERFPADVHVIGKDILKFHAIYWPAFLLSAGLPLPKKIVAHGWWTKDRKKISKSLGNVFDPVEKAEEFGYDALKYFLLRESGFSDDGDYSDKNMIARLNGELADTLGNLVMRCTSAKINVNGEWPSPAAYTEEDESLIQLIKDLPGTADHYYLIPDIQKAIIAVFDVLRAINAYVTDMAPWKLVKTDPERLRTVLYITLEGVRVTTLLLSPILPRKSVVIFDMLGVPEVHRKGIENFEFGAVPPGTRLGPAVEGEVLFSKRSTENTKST

[5] = viability loss in HepG2 hepatoma cells – cell-based, ATP luminescence, cherry-pick, activator set 2, cytotoxicity control, dose response (AID 1053143); type: functional
Streptokinase A = target: T3, Streptokinase A (Streptococcus pyogenes serotype M1, UniProt P10520); assay: viability-normalized secreted streptokinase activity reduction – plasminogen activation absorbance, OD405, dose response (AID 1914); type: functional, Streptococcus pyogenes M1 GAS;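 also: secreted streptokinase activity via plasminogen activation per viability signal from cell pellet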
T3 sequence (P10520 whole entry): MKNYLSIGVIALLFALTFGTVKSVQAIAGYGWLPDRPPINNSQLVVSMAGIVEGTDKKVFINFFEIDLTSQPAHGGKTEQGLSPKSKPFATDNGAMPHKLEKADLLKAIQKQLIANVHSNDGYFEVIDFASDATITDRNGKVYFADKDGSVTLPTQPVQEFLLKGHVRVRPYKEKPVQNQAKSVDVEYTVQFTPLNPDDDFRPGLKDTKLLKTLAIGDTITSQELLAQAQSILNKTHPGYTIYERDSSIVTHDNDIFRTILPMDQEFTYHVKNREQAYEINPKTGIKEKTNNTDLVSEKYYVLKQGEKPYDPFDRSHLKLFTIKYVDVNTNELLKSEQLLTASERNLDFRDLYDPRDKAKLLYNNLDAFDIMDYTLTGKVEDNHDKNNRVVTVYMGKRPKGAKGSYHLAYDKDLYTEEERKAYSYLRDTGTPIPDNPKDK

[6] = Counterscreen for inhibitors of Trypanosoma brucei methionyl tRNA synthetase (MetRS): Luminescence-based cell-based high throughput dose response assay to identify compounds that are cytotoxic to Jurkat human T lymphocyte cells.; type: functional
[7] = test system: Streptococcus sp. 'group A'; assay: Streptococcus pyogenes SK(-)GAS viability under kanamycin – luminescence, BacTiterGlo, confirmation, counter-screen for streptokinase expression inhibitor project, dose response (AID 1900); type: functional, organism-based; settings: Streptococcus sp. 'group A'
Protein RecA = target: T4, Protein RecA (Mycobacterium tuberculosis, UniProt P9WHJ3); assay: Fluorescence Cell-Free Homogeneous Dose Retest to Identify Inhibitors of RecA-Intein Splicing Activity. [Related pubchem assays (depositor defined):AID2097, AID2223, AID489010, AID492950]; type: functional
T4 sequence (P9WHJ3 whole entry): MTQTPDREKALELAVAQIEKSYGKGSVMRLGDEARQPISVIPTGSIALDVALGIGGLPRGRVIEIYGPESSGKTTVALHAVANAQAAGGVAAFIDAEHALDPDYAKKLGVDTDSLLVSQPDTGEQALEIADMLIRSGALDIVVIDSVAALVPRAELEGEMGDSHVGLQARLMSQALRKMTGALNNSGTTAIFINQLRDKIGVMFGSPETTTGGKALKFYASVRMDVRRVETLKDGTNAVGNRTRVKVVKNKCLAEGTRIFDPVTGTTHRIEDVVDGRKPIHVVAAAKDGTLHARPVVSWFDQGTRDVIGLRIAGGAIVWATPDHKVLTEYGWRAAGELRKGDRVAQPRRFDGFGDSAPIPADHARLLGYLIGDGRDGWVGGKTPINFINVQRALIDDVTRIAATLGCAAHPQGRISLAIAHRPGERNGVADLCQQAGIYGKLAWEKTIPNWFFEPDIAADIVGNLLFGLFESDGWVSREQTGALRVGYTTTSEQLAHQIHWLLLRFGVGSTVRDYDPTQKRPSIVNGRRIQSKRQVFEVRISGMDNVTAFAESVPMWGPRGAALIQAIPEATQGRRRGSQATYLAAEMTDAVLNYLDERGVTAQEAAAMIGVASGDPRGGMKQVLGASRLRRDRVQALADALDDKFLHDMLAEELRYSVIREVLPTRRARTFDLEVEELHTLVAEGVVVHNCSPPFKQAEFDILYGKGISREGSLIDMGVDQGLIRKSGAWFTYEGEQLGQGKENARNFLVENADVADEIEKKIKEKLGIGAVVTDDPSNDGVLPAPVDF

[8] = target: T2, Methionyl-tRNA synthetase, putative; type: functional, Trypanosoma brucei brucei strain 927/4 GUTat10.1; remark: listed apart in the source
Streptococcus = assay: GAS UMAA2166 growth inhibition – luminescence, BacTiterGlo, counter-screen for streptokinase expression inhibitor project, dose response (AID 1915); type: functional, organism-based; settings: Streptococcus;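 also: potency for reduction of bacterial viability or growth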
[9] = HEK293 Cytotoxicity Assay Measured in Cell-Based System Using Plate Reader - 7071-01_Inhibitor_Dose_CherryPick_Activity_Set2.; type: functional
HeLa = assay: viability loss in HeLa cells – cell-based, ATP luminescence, cherry-pick samples, cytotoxicity control, dose response (AID 687004); type: functional; settings: Homo sapiens
HEK293 = assay: viability loss in HEK293T cells – cell-based, ATP luminescence, cherry-pick samples, cytotoxicity control, dose response (AID 687005); type: functional; settings: Homo sapiens;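 also: cells exposed to compound for 48 hours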
Kallikrein-7 = Kallikrein-7 (Homo sapiens, UniProt P49862); assay: Fluorescence Intensity-based biochemical primary high throughput dose response assay to identify activators of kallikrein-7 (K7) zymogen.
Chain of Kallikrein-7 (P49862 whole entry): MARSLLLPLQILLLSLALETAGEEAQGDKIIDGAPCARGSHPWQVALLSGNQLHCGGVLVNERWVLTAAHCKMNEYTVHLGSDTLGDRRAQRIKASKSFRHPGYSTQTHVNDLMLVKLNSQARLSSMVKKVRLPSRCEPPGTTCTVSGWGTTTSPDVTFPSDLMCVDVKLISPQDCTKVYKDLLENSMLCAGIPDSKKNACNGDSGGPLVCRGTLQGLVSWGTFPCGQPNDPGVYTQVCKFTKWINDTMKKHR

[10] = blockers of bursicon-stimulated LGR2 cAMP reporter – cell-based, HEK293, CRE-luciferase reporter, cherry pick, set 2, dose response (AID 743343); type: functional;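 also: transfected cells were stimulated with diluted bursicon conditioned medium after compound addition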
[11] = blockade of melanocortin 4 receptor signaling – cell-based, plate reader, cherry pick, counter-screen for LGR2 antagonist project, dose response (AID 743444); type: functional;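 also: transfected HEK 293 cells stimulated with alpha-MSH peptide; potency of inhibitors of the alpha-MSH evoked signal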
[12] = A549 cell cytotoxicity, dose response, cytotoxicity control, plate reader, cherry-pick, antagonist series (AID 743412); type: functional, cell-based
BJ [13] = assay: cells; type: functional, cell-based; settings: Homo sapiens
BJ [14] = assay: BJ-TERT-LT-ST fibroblast viability loss – cell-based, RAS-independent, luminescence, dose response (AID 1935); type: functional; settings: Homo sapiens;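 also: BJ fibroblasts immortalized with TERT plus LT and ST oncogenes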
[15] = toxicity toward HepG2 liver cells – cell-based, plate reader, cherry-pick, antagonist series, cytotoxicity control, dose response (AID 743416); type: functional
[16] = DRD fibroblast viability loss – cell-based, non-viral oncogenic, luminescence, dose response (AID 1934); type: functional; settings: Homo sapiens
[17] = target: Luciferin 4-monooxygenase (Photinus pyralis, UniProt P08659); assay: inhibition of purified Photinus pyralis luciferase – biochemical, luminescence, dose response (AID 1891)
Chain of Luciferin 4-monooxygenase (P08659 whole entry): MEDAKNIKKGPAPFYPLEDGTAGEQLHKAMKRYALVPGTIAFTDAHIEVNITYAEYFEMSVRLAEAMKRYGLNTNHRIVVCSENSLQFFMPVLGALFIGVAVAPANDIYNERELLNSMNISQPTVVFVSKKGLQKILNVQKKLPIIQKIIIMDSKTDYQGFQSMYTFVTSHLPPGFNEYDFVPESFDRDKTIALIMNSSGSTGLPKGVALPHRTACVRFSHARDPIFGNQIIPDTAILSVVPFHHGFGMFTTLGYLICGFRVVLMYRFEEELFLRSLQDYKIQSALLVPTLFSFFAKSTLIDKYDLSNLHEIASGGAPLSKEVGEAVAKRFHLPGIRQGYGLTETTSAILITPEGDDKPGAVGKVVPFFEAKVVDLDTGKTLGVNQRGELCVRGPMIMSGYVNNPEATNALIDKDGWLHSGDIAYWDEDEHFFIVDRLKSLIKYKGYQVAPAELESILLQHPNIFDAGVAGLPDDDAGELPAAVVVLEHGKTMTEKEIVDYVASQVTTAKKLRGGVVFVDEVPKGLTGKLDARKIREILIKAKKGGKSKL

[18] = viability loss in HEK293 cells – cell-based, plate reader, cherry-picked samples, cytotoxicity control, dose response (AID 743446); type: functional
BJ [19] = assay: BJ-TERT fibroblast viability loss – cell-based, RAS-independent, luminescence, dose response (AID 1933); type: functional; settings: Homo sapiens
[20] = Luminescence Cell-Based Dose Confirmation HTS to Identify Inhibitors of Platelet Dense Granule Release. [Related pubchem assays: 1663 (Primary HTS), 1678 (Summary of Project)]; type: functional
[21] = IC50 of insulin release inhibition, rat insulinoma INS-1E line, 5 mM glucose, cell-based (AID 1117331); type: functional
cells = type: functional, cell-based; settings: INS-1E

Chain of 1-phosphatidylinositol 4,5-bisphosphate phosphodiesterase gamma-1 (P19174 whole entry): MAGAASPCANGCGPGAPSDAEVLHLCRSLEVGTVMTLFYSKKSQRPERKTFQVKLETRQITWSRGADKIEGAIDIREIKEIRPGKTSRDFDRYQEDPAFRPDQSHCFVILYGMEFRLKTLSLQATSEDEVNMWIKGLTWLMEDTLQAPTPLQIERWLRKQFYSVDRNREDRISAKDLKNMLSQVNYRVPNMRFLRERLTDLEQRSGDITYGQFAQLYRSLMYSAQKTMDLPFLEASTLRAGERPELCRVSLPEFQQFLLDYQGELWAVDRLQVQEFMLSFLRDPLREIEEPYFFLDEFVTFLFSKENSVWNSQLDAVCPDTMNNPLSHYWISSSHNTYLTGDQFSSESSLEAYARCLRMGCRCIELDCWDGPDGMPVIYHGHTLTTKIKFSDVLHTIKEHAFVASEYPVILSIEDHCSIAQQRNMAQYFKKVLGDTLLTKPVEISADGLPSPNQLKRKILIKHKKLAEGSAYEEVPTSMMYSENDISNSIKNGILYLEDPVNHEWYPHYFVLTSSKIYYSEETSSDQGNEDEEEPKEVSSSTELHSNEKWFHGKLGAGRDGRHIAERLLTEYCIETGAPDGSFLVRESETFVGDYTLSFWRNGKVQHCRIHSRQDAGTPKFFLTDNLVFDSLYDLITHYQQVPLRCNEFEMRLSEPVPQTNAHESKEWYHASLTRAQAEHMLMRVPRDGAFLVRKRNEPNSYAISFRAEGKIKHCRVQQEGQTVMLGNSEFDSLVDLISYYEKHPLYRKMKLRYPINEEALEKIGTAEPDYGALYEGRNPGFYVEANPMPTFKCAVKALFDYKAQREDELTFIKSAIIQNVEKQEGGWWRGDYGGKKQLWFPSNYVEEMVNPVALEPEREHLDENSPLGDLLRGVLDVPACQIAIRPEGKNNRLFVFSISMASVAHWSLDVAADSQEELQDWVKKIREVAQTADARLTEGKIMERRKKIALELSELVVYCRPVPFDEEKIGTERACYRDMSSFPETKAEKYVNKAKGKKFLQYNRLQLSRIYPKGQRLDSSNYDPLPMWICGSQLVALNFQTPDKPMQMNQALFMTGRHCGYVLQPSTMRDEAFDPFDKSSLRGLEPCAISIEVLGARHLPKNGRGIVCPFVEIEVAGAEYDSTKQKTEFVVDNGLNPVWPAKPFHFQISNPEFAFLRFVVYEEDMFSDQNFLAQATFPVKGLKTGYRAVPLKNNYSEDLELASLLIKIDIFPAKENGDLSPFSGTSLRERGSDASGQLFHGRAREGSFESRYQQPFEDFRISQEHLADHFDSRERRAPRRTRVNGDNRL

Cc1ccccc1C(=O)NC1CCN(Cc2nnnn2C2CCCC2)CC1
inactive: IC50 [1] > 122 µM | IC50 [2] > 122 µM

Cc1[nH]c2ccccc2c1/C=N/Nc1nc2ccccc2[nH]1
active: CC50 (Vero) > 25 µM | AC50 [5] 26 µM | EC50 [7] 7.74 µM | EC50 (Protein RecA) 39.3 µM | EC50 (Streptococcus) 9.86 µM
inactive: AC50 [3] > 380 µM | IC50 [4] 36.9 µM | IC50 [6] 36.2 µM | IC50 [8] 17.1 µM
> 150 µM (not active): EC50 (Streptokinase A)

CC(C)(C)c1ccc(OCC(=O)NC(c2ccccc2)c2ccccc2)cc1
inactive: AC50 (HeLa) > 70 µM
active: AC50 [9] 3.2 µM | AC50 (HEK293) 3.2 µM

O=C(CN1CCOCC1)N[C@@H]1CC[C@@H](CCNC(=O)C2CCC2)O[C@@H]1CO
active: AC50 [9] 14.8 µM | AC50 (HEK293) 14.8 µM

O=C(Nc1c(-c2ccccc2)nc2ncccn12)c1ccccc1
inactive: EC50 (Kallikrein-7) > 69.6 µM

CCOc1ccc(Nc2nc(N)c3ccccc3n2)cc1
active: AC50 [10] 1.62 µM | AC50 [11] 2.31 µM | AC50 [12] 12.8 µM | EC50 (BJ [13]) 8.24 µM | EC50 (BJ [14]) 17.5 µM | AC50 [15] 12.9 µM | EC50 [16] 8.22 µM | EC50 [17] 0.765 µM | AC50 [18] 13.2 µM | EC50 (BJ [19]) 7.8 µM | EC50 [20] 0.738 µM

CN1CCc2cc(Cl)c(O)cc2[C@H]2c3ccccc3CC[C@@H]21 [ECOPIPAM]
inactive: IC50 [21] 15.4 µM | IC50 (cells) > 33.3 µM
